According to publication PMC5909415 (ACS nano, 2015):

Legend:
HSA = HSA (Homo sapiens, UniProt P02768); experiment: Interaction between avasimibe and HSA; assay type: binding; conditions: avasimibe:HSA molar ratio 16:1, warfarin:HSA 10:1, warfarin fluorescence
PC3 = experiment: Cell viability assay; assay type: cell-based; conditions: Homo sapiens, PC-3, 72 h, read-out: IC50 of avasimin (containing avasimibe)
[1] = Blood bioavailability of avasimibe; assay type: in vivo, mice; conditions: nude, mouse, whole blood, po
[2] = Tissue distribution of avasimibe in PC3 tumor-bearing mice; assay type: in vivo; conditions: oral avasimibe 15 mg/kg, 2 hr
PC3 tumors = experiment: Anti-tumor effect, PC3 tumor xenograft; conditions: oral avasimibe 15 mg/kg daily by gavage, versus PBS
cancer and normal cells = experiment: Cell viability assay; assay type: cell-based, human; conditions: 72 h

HSA, sequence (P02768 25-609): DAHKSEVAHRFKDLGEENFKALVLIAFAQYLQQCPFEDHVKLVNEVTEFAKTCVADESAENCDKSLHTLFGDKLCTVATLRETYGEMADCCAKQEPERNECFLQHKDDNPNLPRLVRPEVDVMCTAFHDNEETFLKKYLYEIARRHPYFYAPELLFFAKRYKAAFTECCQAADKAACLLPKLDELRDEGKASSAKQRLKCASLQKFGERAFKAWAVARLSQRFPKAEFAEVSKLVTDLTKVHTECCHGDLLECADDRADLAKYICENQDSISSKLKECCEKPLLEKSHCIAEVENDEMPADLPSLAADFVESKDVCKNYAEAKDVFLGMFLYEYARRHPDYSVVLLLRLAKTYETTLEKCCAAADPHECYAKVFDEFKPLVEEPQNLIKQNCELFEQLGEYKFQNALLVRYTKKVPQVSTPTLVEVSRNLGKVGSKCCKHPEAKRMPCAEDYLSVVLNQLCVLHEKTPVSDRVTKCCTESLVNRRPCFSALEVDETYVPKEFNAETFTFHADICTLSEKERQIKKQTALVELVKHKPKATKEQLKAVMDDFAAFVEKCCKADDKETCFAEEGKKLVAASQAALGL

SMILES	replacement of warfarin at the primary binding site (site I) of HSA (HSA)	IC50 (PC3) [µM]	AUC ([1]; 15 mg/kg) [ng·h/mL]	AUC ([1]; 100 mg/kg) [ng·h/mL]	avasimibe in the tumor tissue [2]	distribution of avasimibe to liver [2]	excretion of avasimibe through feces [2]	anti-tumor effect in terms of tumor volume (PC3 tumors)	effect on viability of cancer and normal cells (cancer and normal cells)
CC(C)c1cc(C(C)C)c(CC(=O)NS(=O)(=O)Oc2c(C(C)C)cccc2C(C)C)c(C(C)C)c1 [avasimibe]	complete replacement of warfarin	8.5	14900	49900	not detectable	most orally administered avasimibe was found in the liver tissue	considerable amount of avasimibe was excreted through the feces	did not exhibit anti-tumor effect	–
N.N.[Cl][Pt][Cl] [cisplatin]	–	–	–	–	–	–	–	–	non-selective cytotoxic effects
Nc1ccn([C@@H]2O[C@H](CO)[C@@H](O)C2(F)F)c(=O)n1 [gemcitabine]	–	–	–	–	–	–	–	–	non-selective cytotoxic effects
